Columns and labels:
[1] = biological target: recombinant human baculovirus-expressed cMET (Homo sapiens (Human), UniProt P08581); test: c-MET kinase assay (HTRF KinEASE); format: biochemical; settings: average of two or more determinations; read-out: c-MET IC50
[2] = biological target: recombinant human baculovirus-expressed AXL (Homo sapiens (Human), UniProt P30530); test: AXL kinase assay (HTRF KinEASE); format: biochemical; settings: average of two or more determinations

| IC50 [1] [nM] | IC50 [2] [nM] | Compound |
| --- | --- | --- |
| 10 to 100 | < 10 | Cc1ccc(C(=O)Nc2ccc(Oc3cc(N4CCC(=O)CC4)cn4nccc34)c(F)c2)c(=O)n1-c1ccc(F)cc1 [Example 59, 1-(4-Fluoro-phenyl)-6-methyl-2-oxo-1,2-dihydro-pyridine-3-carboxylic acid {3-fluoro-4-[6-(4-oxo-piperidin-1-yl)-pyrazolo[1,5-a]pyridin-4-yloxy]-phenyl}-amide] |
| < 10 | < 10 | CC(C)n1cc(C(=O)Nc2ccc(Oc3cc(N4CCOCC4)cn4nccc34)c(F)c2)c(=O)n(-c2ccc(F)cc2)c1=O [Example 62, 3-(4-Fluoro-phenyl)-1-isopropyl-2,4-dioxo-1,2,3,4-tetrahydro-pyrimidine-5-carboxylic acid[3-fluoro-4-(6-morpholin-4-yl-pyrazolo[1,5-a]pyridin-4-yloxy)-phenyl]-amide] |
| < 10 | < 10 | O=C(Nc1ccc(Oc2cc(N3CCC(O)CC3)cn3nccc23)c(F)c1)c1cccn(-c2ccc(F)cc2)c1=O [Example 68, 1-(4-Fluoro-phenyl)-2-oxo-1,2-dihydro-pyridine-3-carboxylic acid{3-fluoro-4-[6-(4-hydroxy-piperidin-1-yl)-pyrazolo[1,5-a]pyridin-4-yloxy]-phenyl}-amide] |
| < 10 | < 10 | Cn1cc(Nc2cc(Oc3ccc(NC(=O)c4cccn(-c5ccc(F)cc5)c4=O)cc3F)c3ccnn3c2)cn1 [Example 79, 1-(4-Fluoro-phenyl)-2-oxo-1,2-dihydro-pyridine-3-carboxylic acid {3-fluoro-4-[6-(1-methyl-1H-pyrazol-4-ylamino)-pyrazolo[1,5-a]pyridin-4-yloxy]-phenyl}-amide] |
| < 10 | < 10 | Cn1cnc(-c2cc(Oc3ccc(NC(=O)c4cccn(-c5ccc(F)cc5)c4=O)cc3F)c3ccnn3c2)c1 [Example 88, 1-(4-Fluoro-phenyl)-2-oxo-1,2-dihydro-pyridine-3-carboxylic acid {3-fluoro-4-[6-(1-methyl-1H-imidazol-4-yl)-pyrazolo[1,5-a]pyridin-4-yloxy]-phenyl}-amide] |
| < 10 | < 10 | Cc1ccc(C(=O)Nc2ccc(Oc3cc(-c4cn(C)cn4)cn4nccc34)c(F)c2)c(=O)n1-c1ccc(F)cc1 [Example 91, 1-(4-Fluoro-phenyl)-6-methyl-2-oxo-1,2-dihydro-pyridine-3-carboxylic acid {3-fluoro-4-[6-(1-methyl-1H-imidazol-4-yl)-pyrazolo[1,5-a]pyridin-4-yloxy]-phenyl}-amide] |
| < 10 | < 10 | CCn1cc(C(=O)Nc2ccc(Oc3cc(-c4cn(C)cn4)cn4nccc34)c(F)c2)c(=O)n(-c2ccc(F)cc2)c1=O [Example 93, 1-Ethyl-3-(4-fluoro-phenyl)-2,4-dioxo-1,2,3,4-tetrahydro-pyrimidine-5-carboxylic acid {3-fluoro-4-[6-(1-methyl-1H-imidazol-4-yl)-pyrazolo[1,5-a]pyridin-4-yloxy]-phenyl}-amide] |
| < 10 | < 10 | CC(C)n1cc(C(=O)Nc2ccc(Oc3cc(-c4cn(C)cn4)cn4nccc34)c(F)c2)c(=O)n(-c2ccc(F)cc2)c1=O [Example 94, 3-(4-Fluoro-phenyl)-1-isopropyl-2,4-dioxo-1,2,3,4-tetrahydro-pyrimidine-5-carboxylic acid {3-fluoro-4-[6-(1-methyl-1H-imidazol-4-yl)-pyrazolo[1,5-a]pyridin-4-yloxy]-phenyl}-amide] |
| < 10 | < 10 | Cn1cnc(-c2cc(Oc3ccc(NC(=O)c4cn(C)c(=O)n(-c5ccc(F)cc5)c4=O)cc3F)c3ccnn3c2)c1 [Example 95, 3-(4-Fluoro-phenyl)-1-methyl-2,4-dioxo-1,2,3,4-tetrahydro-pyrimidine-5-carboxylic acid{3-fluoro-4-[6-(1-methyl-1H-imidazol-4-yl)-pyrazolo[1,5-a]pyridin-4-yloxy]-phenyl}-amide] |
| 10 to 100 | < 10 | Cn1cnc(-c2cc(Oc3ccc(NC(=O)c4cn(CCOCc5ccccc5)c(=O)n(-c5ccc(F)cc5)c4=O)cc3F)c3ccnn3c2)c1 [Example 96, 1-(2-Benzyloxy-ethyl)-3-(4-fluoro-phenyl-)-2,4-dioxo-1,2,3,4-tetrahydro-pyrimidine-5-carboxylic acid{3-fluoro-4-[6-(1-methyl-1H-imidazol-4-yl)-pyrazolo[1,5-a]pyridin-4-yloxy]-phenyl}-amide] |
| < 10 | < 10 | CCn1cc(C(=O)Nc2ccc(Oc3cc(-c4cscn4)cn4nccc34)c(F)c2)c(=O)n(-c2ccc(F)cc2)c1=O [Example 101, 1-Ethyl-3-(4-fluoro-phenyl)-2,4-dioxo-1,2,3,4-tetrahydro-pyrimidine-5-carboxylic acid[3-fluoro-4-(6-thiazol-4-yl-pyrazolo[1,5-a]pyridin-4-yloxy)-phenyl]-amide] |
| < 10 | < 10 | O=C(Nc1ccc(Oc2cc(-c3cscn3)cn3nccc23)c(F)c1)c1cccn(-c2ccc(F)cc2)c1=O [Example 102, 1-(4-Fluoro-phenyl)-2-oxo-1,2-dihydro-pyridine-3-carboxylic acid[3-fluoro-4-(6-thiazol-4-yl-pyrazolo[1,5-a]pyridin-4-yloxy)-phenyl]-amide] |
| < 10 | < 10 | CC(C)n1cc(C(=O)Nc2ccc(Oc3cc(-c4cncs4)cn4nccc34)c(F)c2)c(=O)n(-c2ccc(F)cc2)c1=O [Example 103, 3-(4-Fluoro-phenyl)-1-isopropyl-2,4-dioxo-1,2,3,4-tetrahydro-pyrimidine-5-carboxylic acid[3-fluoro-4-(6-thiazol-5-yl-pyrazolo[1,5-a]pyridin-4-yloxy)-phenyl]-amide] |
| < 10 | < 10 | CCn1cc(C(=O)Nc2ccc(Oc3cc(-c4cncs4)cn4nccc34)c(F)c2)c(=O)n(-c2ccc(F)cc2)c1=O [Example 104, 1-Ethyl-3-(4-fluoro-phenyl)-2,4-dioxo-1,2,3,4-tetrahydro-pyrimidine-5-carboxylic acid[3-fluoro-4-(6-thiazol-5-yl-pyrazolo[1,5-a]pyridin-4-yloxy)-phenyl]-amide] |
| < 10 | < 10 | Cn1cnc(-c2cc(Oc3ccc(NC(=O)c4c[nH]c(=O)n(-c5ccc(F)cc5)c4=O)cc3F)c3ccnn3c2)c1 [Example 107, 3-(4-Fluoro-phenyl)-2,4-dioxo-1,2,3,4-tetrahydro-pyrimidine-5-carboxylic acid{3-fluoro-4-[6-(1-methyl-1H-imidazol-4-yl)-pyrazolo[1,5-a]pyridin-4-yloxy]-phenyl}-amide] |
| 10 to 100 | < 10 | Cc1cc(NC(=O)c2cn(C(C)C)c(=O)n(-c3ccc(F)cc3)c2=O)ccc1Oc1cc(-c2cn(C)cn2)cn2nccc12 [Example 110, 3-(4-Fluoro-phenyl)-1-isopropyl-2,4-dioxo-1,2,3,4-tetrahydro-pyrimidine-5-carboxylic acid{3-methyl-4-[6-(1-methyl-1H-imidazol-4-yl)-pyrazolo[1,5-a]pyridin-4-yloxy]-phenyl}-amide] |
| < 10 | < 10 | CCn1cc(C(=O)Nc2ccc(Oc3cc(-c4cn(C)cn4)cn4nccc34)cc2)c(=O)n(-c2ccc(F)cc2)c1=O [Example 113, 1-Ethyl-3-(4-fluoro-phenyl)-2,4-dioxo-1,2,3,4-tetrahydro-pyrimidine-5-carboxylic acid {4-[6-(1-methyl-1H-imidazol-4-yl)-pyrazolo[1,5-a]pyridin-4-yloxy]-phenyl}-amide] |
| < 10 | < 10 | CC(C)n1cc(C(=O)Nc2ccc(Oc3cc(-c4cn(C)cn4)cn4nccc34)cc2)c(=O)n(-c2ccc(F)cc2)c1=O [Example 114, 3-(4-Fluoro-phenyl)-1-isopropyl-2,4-dioxo-1,2,3,4-tetrahydro-pyrimidine-5-carboxylic acid{4-[6-(1-methyl-1H-imidazol-4-yl)-pyrazolo[1,5-a]pyridin-4-yloxy]-phenyl}-amide] |
| < 10 | < 10 | CC(C)n1cc(C(=O)Nc2ccc(Oc3cc(-c4cn(C)cn4)cn4nccc34)cn2)c(=O)n(-c2ccc(F)cc2)c1=O [Example 124, 3-(4-Fluoro-phenyl)-1-isopropyl-2,4-dioxo-1,2,3,4-tetrahydro-pyrimidine-5-carboxylic acid {5-[6-(1-methyl-1H-imidazol-4-yl)-pyrazolo[1,5-a]pyridin-4-yloxy]-pyridin-2-yl}-amide] |
| < 10 | < 10 | CCn1nc(C(=O)Nc2ccc(Oc3cc(-c4cn(C)cn4)cn4nccc34)c(F)c2)c(=O)n(-c2ccc(F)cc2)c1=O [Example 128, 2-Ethyl-4-(4-fluoro-phenyl)-3,5-dioxo-2,3,4,5-tetrahydro-1,2,4-triazine-6-carboxylic acid {3-fluoro-4-[6-(1-methyl-1H-imidazol-4-yl)-pyrazolo[1,5-a]pyridin-4-yloxy]-phenyl}-amide] |
| < 10 | < 10 | CC(C)n1nc(C(=O)Nc2ccc(Oc3cc(-c4cn(C)cn4)cn4nccc34)c(F)c2)c(=O)n(-c2ccc(F)cc2)c1=O [Example 129, 4-(4-Fluoro-phenyl)-2-isopropyl-3,5-dioxo-2,3,4,5-tetrahydro-1,2,4-triazine-6-carboxylic acid{3-fluoro-4-[6-(1-methyl-1H-imidazol-4-yl)-pyrazolo[1,5-a]pyridin-4-yloxy]-phenyl}-amide] |
| < 10 | < 10 | CCn1cc(C(=O)Nc2ccc(Oc3cc(NC(C)=O)cn4nccc34)c(F)c2)c(=O)n(-c2ccc(F)cc2)c1=O [Example 142, 1-Ethyl-3-(4-fluoro-phenyl)-2,4-dioxo-1,2,3,4-tetrahydro-pyrimidine-5-carboxylic acid[4-(6-acetylamino-pyrazolo[1,5-a]pyridin-4-yloxy)-3-fluoro-phenyl]-amide] |
| < 10 | < 10 | CC(C)n1cc(C(=O)Nc2ccc(Oc3cc(NC(=O)N(C)C)cn4nccc34)c(F)c2)c(=O)n(-c2ccc(F)cc2)c1=O [Example 147, 3-(4-Fluoro-phenyl)-1-isopropyl-2,4-dioxo-1,2,3,4-tetrahydro-pyrimidine-5-carboxylic acid{4-[6-(3,3-dimethyl-ureido)-pyrazolo[1,5-a]pyridin-4-yloxy]-3-fluoro-phenyl}-amide] |
